According to patent US20230114946A1, “MESOSCALE NANOPARTICLES FOR SELECTIVE TARGETING TO THE KIDNEY AND METHODS OF THEIR THERAPEUTIC USE” (Memorial Sloan Kettering Cancer Center, priority 2015, published 2023):

Tested on: human kidney proximal tubular epithelial cell line HK-2
Experiment: In vitro nanoparticle uptake
Type: cell-based
Settings: inhibitor of clathrin/caveolin-mediated endocytosis
Procedure: The following cell lines were used to determine uptake of anionic and cationic nanoparticles in vitro: MCF-7 human breast adenocarcinoma (ATCC; Manassas, Va.), SK-RC-48 human clear cell renal cell carcinoma (ccRCC) (Weill Cornell Medical College; New York, N.Y.), bEND3 mouse brain endothelial (ATCC), endothelial cell line EA-926, and human kidney proximal tubular epithelial cell line HK-2. MCF-7 cells were cultured in Dulbecco's Modified Eagle Medium (DMEM) with penicillin (10,000 U/mL)/streptomycin (10,000 U/mL)/glutamine (29.2 mg/mL) (Gibco; Carlsbad, Calif.), 0.01 mg/mL human recombinant insulin (Gibco), and 10% fetal bovine serum (FBS) (Gibco); SK-RC-48 were cultured in DMEM with 1× penicillin/streptomycin/glutamine and 10% FBS; and bEND3 cells in the same plus 1% glutaMAX (Gibco). HK-2 cells were cultured in Keratinocyte Serum Free Media (Gibco). EA-926 cells were cultured in RPMI-1640 medium (Gibco) supplemented with 10% FBS. Cells were passaged approximately weekly and media changed every 2-3 days. Cells were seeded into a 6-well cell culture dish for uptake studies. […]
Cells were incubated with 100 μg/mL NPs in 1 mL of their respective complete medias for 30 minutes. […] Cells were imaged with a fluorescence microscope using Cy5 filters.

## O=C(N/N=C/c1ccc(O)c(O)c1)c1cc2ccccc2cc1O [Dynasore]
  inhibition of MNP uptake into HK-2 cells: can be inhibited
